Assay results: ChEMBL document CHEMBL4818998, “Melatonin derivatives combat with inflammation-related cancer by targeting the Main Culprit STAT3” (Eur J Med Chem, 2021)
Calls of active or inactive are those of the source. The rule behind the calls is not given here.

Legend:
[1] = system: MGC-803; test: Antimetastatic activity against human MGC-803 cells assessed as inhibition of cell invasion measured after 24 hrs by transwell assay; assay type: functional, cell-based; conditions: dose 2.5-15 µM
[2] = Half life in Sprague-Dawley rat at 100 mg/kg, ig measured for 24 hrs by LC-MS analysis; assay type: ADME, organism-based; conditions: in vivo, po
[3] = biological target: Signal transducer and activator of transcription 3 (Homo sapiens) (UniProt P40763); test: Inhibition of STAT3 in human HCT-116 cells assessed as decrease in STAT3 phosphorylation at 2.5 to 10 uM measured after 48 hrs by western blot assay; assay type: cell-based; conditions: dose 2.5-10 µM
[4] = system: A549; test: Antiproliferative activity against human A549 cells assessed as inhibition of cell proliferation measured after 72 hrs by MTT assay; assay type: functional, cell-based; conditions: A549, 72 h
[5] = biological target: Signal transducer and activator of transcription 3 (Homo sapiens) (UniProt P40763); test: Inhibition of STAT3 in human MGC-803 cells assessed as decrease in Bcl-2 expression at 4 to 16 uM measured after 48 hrs by western blot assay; assay type: cell-based; conditions: dose 4-16 µM
[6] = system: HCT-116; test: Induction of apoptosis in human HCT-116 cells assessed as viable cells at 2.5 uM measured after 48 hrs by Annexin V-FITC/PI staining based flow cytometry assay (reference value: 94.9%); assay type: functional; conditions: read-out: Activity
[7] = system: HCT-116; test: Induction of apoptosis in human HCT-116 cells assessed as viable cells at 20 uM measured after 48 hrs by Annexin V-FITC/PI staining based flow cytometry (reference value: 94.9%); assay type: functional; conditions: read-out: Activity
[8] = system: MGC-803; test: Downregulation of STAT3 expression in human MGC-803 cells at 10 uM measured after 3 hrs by Hoechst/fluorochrome-conjugated antibody staining based confocal laser microscopy; assay type: functional, cell-based
[9] = Toxicity in Kunming mouse assessed as hair condition at 1000 mg/kg, ig measured for 14 days; assay type: organism-based; conditions: in vivo, po, 336 h, time 14 day
[10] = system: HGC-27; test: Antiproliferative activity against human HGC-27 cells assessed as inhibition of cell proliferation measured after 72 hrs by MTT assay; assay type: functional, cell-based; conditions: HGC-27, 72 h
[11] = system: HCT-116; test: Induction of apoptosis in human HCT-116 cells assessed as necrotic cells at 2.5 uM measured after 48 hrs by Annexin V-FITC/PI staining based Flowcytometry assay (reference value: 1.5%); assay type: functional
[12] = system: HCT-116; test: Induction of cell cycle arrest in human HCT116 cells assessed as accumulation of cells at G0/G1 phase at 20 uM measured after 48 hrs by propidium iodide staining based flow cytometry analysis (reference value: 70.45%); assay type: functional
[13] = system: HCT-116; test: Induction of apoptosis in human HCT-116 cells assessed as late apoptotic cells at 2.5 uM measured after 48 hrs by Annexin V-FITC/PI staining based flow cytometry assay (reference value: 1.42%); assay type: functional
[14] = system: HCT-116; test: Downregulation of STAT3 expression in human HCT-116 cells at 10 uM measured after 3 hrs by Hoechst/fluorochrome-conjugated antibody staining based confocal laser microscopy; assay type: functional, cell-based
[15] = system: HCT-116; test: Induction of apoptosis in human HCT-116 cells assessed as increase in apoptotic cells with twinkling cell nuclei at 1.25 to 10 uM measured after 48 hrs by Hoechst 33342 staining based light blue fluorescence analysis; assay type: functional; conditions: dose 1.25-10 µM
[16] = system: HCT-116; test: Induction of ROS generation in human HCT-116 cells at 2.5 to 15 uM measured after 36 hrs by DCFH-DA staining based fluorescence microscopic analysis; assay type: functional, cell-based; conditions: dose 2.5-15 µM
[17] = system: HCT-116; test: Induction of apoptosis in human HCT-116 cells assessed as upregulation of Bax expression at 2.5 to 10 uM measured after 48 hrs by western blot assay; assay type: functional, cell-based; conditions: dose 2.5-10 µM
[18] = Toxicity in Kunming mouse assessed as feeding frequency and amount at 1000 mg/kg, ig measured for 14 days; assay type: organism-based; conditions: in vivo, po, 336 h, time 14 day
[19] = system: MGC-803; test: Downregulation of STAT3 expression in human MGC-803 cells at 4 to 16 uM measured after 48 hrs by western blot assay; assay type: functional, cell-based; conditions: dose 4-16 µM
[20] = system: HCT-116; test: Antimetastatic activity against human HCT-116 cells assessed as inhibition of cell invasion measured after 36 hrs by transwell assay; assay type: functional, cell-based; conditions: dose 2.5-15 µM
[21] = biological target: Signal transducer and activator of transcription 3 (Homo sapiens) (UniProt P40763); test: Inhibition of STAT3 in human MGC-803 cells assessed as inhibition of nuclear translocation of STAT3 at 10 uM measured after 3 hrs by Hoechst/fluorochrome-conjugated antibody staining based confocal laser microscopy; assay type: cell-based
[22] = system: HCT-116; test: Induction of apoptosis in human HCT-116 cells assessed as necrotic cells at 5 uM measured after 48 hrs by Annexin V-FITC/PI staining based flow cytometry (reference value: 1.5%); assay type: functional
[23] = system: HCT-116; test: Antiproliferative activity against human HCT-116 cells assessed as decrease in cell population at S-phase at 1.25 to 10 uM measured after 24 hrs by EdU incorporation based fluorescence microscopic analysis; assay type: functional; conditions: dose 1.25-10 µM
[24] = Toxicity in po dosed Kunming mouse; assay type: organism-based; conditions: in vivo
[25] = system: HCT-116; test: Cytotoxicity against human HCT-116 cells assessed as reduction in cell viability at <=20 uM measured after 48 hrs by CCK8 assay; assay type: cell-based; conditions: hct-116, 48 h
[26] = system: HCT-116; test: Induction of apoptosis in human HCT-116 cells assessed as late apoptotic cells at 20 uM measured after 48 hrs by Annexin V-FITC/PI staining based flow cytometry (reference value: 1.42%); assay type: functional
[27] = system: MGC-803; test: Antimetastatic activity against human MGC-803 cells assessed as inhibition of cell migration measured after 24 hrs by transwell assay; assay type: functional, cell-based; conditions: dose 2.5-15 µM
[28] = Cytotoxicity against human HCT-116 cells assessed as cell viability at <36 uM measured after 24 hrs by CCK8 assay; assay type: cell-based; conditions: read-out: Activity
[29] = system: SGC-7901; test: Antiproliferative activity against human SGC-7901 cells assessed as inhibition of cell proliferation measured after 72 hrs by MTT assay; assay type: functional, cell-based; conditions: SGC-7901, 72 h
[30] = system: MGC-803; test: Induction of cell cycle arrest in human MGC-803 cells at 2.5 to 20 uM measured after 48 hrs by propidium iodide staining based flow cytometry analysis; assay type: functional; conditions: dose 2.5-20 µM
[31] = system: MCF7; test: Antiproliferative activity against human MCF7 cells assessed as inhibition of cell proliferation measured after 72 hrs by MTT assay; assay type: functional, cell-based; conditions: MCF7, 72 h
[32] = system: HCT-116; test: Inhibition of clonogenicity in human HCT-116 cells assessed as reduction in colony formation measured after 9 days by crystal violet staining based analysis; assay type: functional, cell-based; conditions: dose 1.25-10 µM, time 9.0 day
[33] = system: HCT-116; test: Induction of apoptosis in human HCT-116 cells assessed as early apoptotic cells at 20 uM measured after 48 hrs by Annexin V-FITC/PI staining based flow cytometry (reference value: 2.14%); assay type: functional
[34] = system: HCT-116; test: Induction of apoptosis in human HCT-116 cells assessed as […] of cleaved caspase-3 expression at 2.5 to 10 uM measured after 48 hrs by western blot assay; assay type: functional, cell-based; conditions: dose 2.5-10 µM
[35] = system: MGC-803; test: Antiproliferative activity against human MGC-803 cells assessed as decrease in cell population at S-phase at 2 to 16 uM measured after 24 hrs by EdU incorporation based fluorescence microscopic analysis; assay type: functional; conditions: dose 2-16 µM
[36] = system: HCT-116; test: Induction of apoptosis in human HCT-116 cells assessed as chromatin pyknosis at 2.5 to 15 uM measured after 48 hrs by Giemsa staining method; assay type: functional, cell-based; conditions: dose 2.5-15 µM
[37] = biological target: Signal transducer and activator of transcription 3 (Homo sapiens) (UniProt P40763); test: Inhibition of STAT3 in human MGC-803 cells assessed as decrease in STAT3 phosphorylation at 4 to 16 uM measured after 48 hrs by western blot assay; assay type: cell-based; conditions: dose 4-16 µM

Chain of Signal transducer and activator of transcription 3 (Homo sapiens) (P40763 whole entry): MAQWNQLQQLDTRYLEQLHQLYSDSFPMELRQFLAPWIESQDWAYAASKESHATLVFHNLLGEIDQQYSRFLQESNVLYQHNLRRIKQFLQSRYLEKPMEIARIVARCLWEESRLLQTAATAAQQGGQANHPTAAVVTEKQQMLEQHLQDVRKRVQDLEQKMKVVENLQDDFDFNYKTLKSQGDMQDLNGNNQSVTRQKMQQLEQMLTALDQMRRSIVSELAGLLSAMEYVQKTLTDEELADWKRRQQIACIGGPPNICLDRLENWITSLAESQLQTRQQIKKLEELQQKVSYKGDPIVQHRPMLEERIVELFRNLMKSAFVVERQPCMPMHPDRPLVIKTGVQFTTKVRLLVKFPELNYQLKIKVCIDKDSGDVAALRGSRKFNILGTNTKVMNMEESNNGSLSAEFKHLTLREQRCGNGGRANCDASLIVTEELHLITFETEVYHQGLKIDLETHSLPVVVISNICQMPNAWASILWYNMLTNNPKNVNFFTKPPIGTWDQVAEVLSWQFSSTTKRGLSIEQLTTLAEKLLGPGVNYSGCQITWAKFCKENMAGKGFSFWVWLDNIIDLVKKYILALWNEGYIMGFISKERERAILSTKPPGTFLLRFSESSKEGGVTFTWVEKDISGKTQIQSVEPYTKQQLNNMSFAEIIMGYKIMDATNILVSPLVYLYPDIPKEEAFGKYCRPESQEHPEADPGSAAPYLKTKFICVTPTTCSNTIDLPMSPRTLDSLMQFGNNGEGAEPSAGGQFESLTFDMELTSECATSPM

Cc1c(Cl)cccc1Nc1ccccc1C(=O)NCCc1c[nH]c2ccccc12
Activity [1]: Dose-Dependent Effect
half-life [2]: 7.58 h
inhibition [3]: Active
IC50 [4]: 18.6 µM
inhibition [5]: Active
viability at 2.5 µM [6]: 91.3%
viability at 20 µM [7]: 45.9%
inhibition [8]: Active
Activity [9]: Non-Toxic
IC50 [10]: 15.5 µM
Activity [11]: 2.07%
Activity [12]: 84.74%
Activity [13]: 3.12%
inhibition [14]: Active
Activity [15]: Active
Activity [16]: Active
Activity [17]: Active
Activity [18]: Non-Toxic
inhibition [19]: Active
Activity [20]: Dose-Dependent Effect
inhibition [21]: Active
Activity [22]: 2.81%
Activity [23]: Active
LD50 [24]: > 1000 mg/kg
Activity [25]: Non-Toxic
Activity [26]: 8.95%
Activity [27]: Dose-Dependent Effect
viability at 24 h [28]: ≥ 80%
IC50 [29]: 15.5 µM
Activity [30]: inactive
IC50 [31]: 12.8 µM
inhibition [32]: Dose-Dependent Effect
Activity [33]: 42.5%
Activity [34]: Active
Activity [35]: Active
Activity [36]: Active
inhibition [37]: Active
